Assays:
[1] = tested on: behavioral agitation in dementia; conditions: some patients with dementia; cited from earlier work
[2] = tested on: seizures in several rodent models of epilepsy; conditions: cited from earlier work
[3] = tested on: patients with psychosis, not otherwise specified; test: retrospective chart review of open label add-on topiramate, psychosis patients; format: in vivo, human; conditions: both psychosis inpatients; daily mean dose 260 mg, duration 10.7 weeks; added to existing pharmacotherapy, several on risperidone
Experimental: (§1) A retrospective analysis of patients treated in an open label manner with topiramate for dementia and/or behavioral and psychotic disturbances in dementia was performed.
(§2) The charts of 58 consecutive patients with diagnosed psychiatric disorders refractory to conventional mood stabilizers who were treated with topiramate were selected for retrospective review. Topiramate 25 mg BID was added to existing pharmacotherapy on an open label basis. It was titrated upward in 50 mg (25 mg bid) increments every seven days until improvement occurred or a total dosage of 400 mg per day was reached. Charts were retrospectively reviewed for the following data: demographic information, psychiatric diagnosis and duration of illness, general medical history, daily dose of topiramate and regimen, duration of topiramate therapy, reason for discontinuation of topiramate therapy, previous therapy, concurrent medications, adverse events and evaluation of response to topiramate.
(§3) Results were analyzed using descriptive statistics. When possible, results are expressed as means with standard deviation (SD). […] Improvement was investigator rated and included a qualitative assessment of changes in sleep, appetite, mood and concentration during therapy. Adverse events reported by the patients were recorded during therapy and assessed for their relationship to study therapy. […]

patients with dementia = test: retrospective chart review of open label add-on topiramate, dementia patients; format: in vivo, human; conditions: all three dementia inpatients; daily mean dose 210 mg, duration 11.7 weeks; added to existing pharmacotherapy, several on risperidone
Experimental: as §1, §2, §3

[4] = tested on: simple and complex partial seizures and secondarily generalized seizures; conditions: adjunctive therapy or monotherapy, clinical trials; cited from earlier work
kindled epilepsy = conditions: animal model of kindled epilepsy; cited from earlier work

Row | SMILES | control of behavioral agitation [1] | block of seizures [2] | investigator rated response (Likert scale worse / no change / minimally improved / markedly improved) [3] | investigator rated response (Likert scale worse / no change / minimally improved / markedly improved) (patients with dementia) | efficacy in treating simple and complex partial seizures and secondarily generalized seizures [4] | block of seizures (kindled epilepsy)
1 | CCCC(CCC)C(=O)O [divalproex sodium] | efficacious |  |  |  |  | 
2 | NC(=O)N1c2ccccc2C=Cc2ccccc21 [carbamazepine] | efficacious |  |  |  |  | 
3 | CC1(C)O[C@@H]2[C@@H](CO[C@@]3(COS(N)(=O)=O)OC(C)(C)O[C@@H]23)O1 [topiramate, 2,3:4,5-bis-O-(1-methylethylidene)-β-D-fructopyranose sulfamate] |  | effectively block seizures | marked or moderate improvement | marked or moderate improvement | effective | effectively block seizures

— patent US6620819B2, “Anticonvulsant derivatives useful in treating psychosis” (Ortho-McNeil Pharmaceutical, Inc., priority 1999, dated 2003)
